# Measured values as given in US9133147B2, “Thrombin inhibitors” (Merck Sharp & Dohme Corp., priority 2012, dated 2015).
# Counter-ions that a name gives are not always drawn.
# Target: human α-thrombin (Homo sapiens, UniProt P00734)
# Test: In vitro assay for determining proteinase inhibition (thrombin Ki)
# Type: biochemical
# Settings: 25° C., 0.05 M TRIS buffer pH 7.4, 0.15 M NaCl, 0.1% PEG; sar-PR-pna or Z-GPR-afc substrate; competitive inhibition assumed
# Excerpt: Unless otherwise stated, all NMR determinations were made using 400 MHz field strength. Ki data was obtained according to the procedure described in Lewis, et al. Thromb. Res. 1993, 70, 173 (assays of human-thrombin and human trypsin), and Lewis, et al. Thromb. Haemostasis 1995, 74, 1107-1112.
# Relevant in vitro assays are referenced in Morrissette, et al., Bioorg. Med. Chem. Lett. 2004, 14, 4161-4164 and described in Lewis, et al. Thromb. Res. 1993, 70, 173 (assays of human α-thrombin and human trypsin), and Lewis, et al. Thromb. Haemostasis 1995, 74, 1107-1112. The assays were carried out at 25° C. in 0.05 M TRIS buffer pH 7.4, 0.15 M NaCl, 0.1% PEG. Trypsin assays also contained 1 mM CaCl2. In assays wherein rates of hydrolysis of a p-nitroanilide (pna) substrate were determined, a Thermomax 96-well plate reader was used was used to measure (at 405 nm) the time dependent appearance of p-nitroaniline. sar-PR-pna was used to assay human α-thrombin (Km=125 μM) and bovine trypsin (Km=125 μM). p-Nitroanilide substrate concentration was determined from measurements of absorbance at 342 nm using an extinction coefficient of 8270 cm^−1M^−1.
# In certain studies with potent inhibitors (Ki<10 nM) where the degree of inhibition of thrombin was high, a more sensitive activity assay was employed. In this assay the rate of thrombin catalyzed hydrolysis of the fluorogenic substrate benzyloxycarbonyl-Gly-Pro-Arg-7-amino-4-trifluoromethylcoumarin (Z-GPR-afc, Lewis S. D. et al. (1998) J. Biol. Chem. 273, pp. 4843-4854) (Km=27 μM) was determined from the increase in fluorescence at 500 nm (excitation at 400 nm) associated with production of 7-amino-4-trifluoromethyl coumarin. Concentrations of stock solutions of Z-GPR-afc were determined from measurements of absorbance at 380 nm of the 7-amino-4-trifluoromethyl coumarin produced upon complete hydrolysis of an aliquot of the stock solution by thrombin.
# Activity assays were performed by diluting a stock solution of substrate at least tenfold to a final concentration ≦0.1 Km into a solution containing enzyme or enzyme equilibrated with inhibitor. Times required to achieve equilibration between enzyme and inhibitor were determined in control experiments. Initial velocities of product formation in the absence (VO) or presence of inhibitor (Vi) were measured. Assuming competitive inhibition, and that unity is negligible compared Km/[S], [I]/e, and [I]/e (where [S], [I], and e respectively represent the total concentrations, of substrate, inhibitor and enzyme), the equilibrium constant (Ki) for dissociation of the inhibitor from the enzyme can be obtained from the dependence of VO/Vi on [I] shown in the following equation. VO/Vi=1+[I]/Ki
row,SMILES,Ki [nM]
1,"CC(C)(C)[C@@H](O)C(=O)N1CCS(=O)(=O)C[C@H]1C(=O)NCc1cc(Cl)ccc1CN [Example 7, (3R)—N-[2-(aminomethyl)-5-chlorobenzyl]-4-[(2R)-2-hydroxy-3,3-dimethylbutanoyl]thiomorpholine-3-carboxamide 1,1-dioxide trifluoroacetate salt]",52
2,"CC(C)(C)[C@@H](O)C(=O)N1CCSC[C@H]1C(=O)NCc1cc(Cl)ccc1CN [Example 5, (3R)—N-[2-(aminomethyl)-5-chlorobenzyl]-4-[(2R)-2-hydroxy-3,3-dimethylbutanoyl]thiomorpholine-3-carboxamide trifluoroacetate salt]",1.1
3,"CC(C)(C)[C@@H](O)C(=O)N1CCNC[C@H]1C(=O)NCc1cc(Cl)ccc1CN [Example 2, (2S)—N-[2-(aminomethyl)-5-chlorobenzyl]-1-[(2R)-2-hydroxy-3,3-dimethylbutanoyl]piperazine-2-carboxamide bis trifluoroacetate salt]",63
4,"CN1CCN(C(=O)[C@H](O)C(C)(C)C)[C@H](C(=O)NCc2cc(Cl)ccc2CN)C1 [Example 3, (2S)—N-[2-(aminomethyl)-5-chlorobenzyl]-1-[(2R)-2-hydroxy-3,3-dimethylbutanoyl]-4-methylpiperazine-2-carboxamide trifluoroacetate salt]",34
5,"CC(C)(C)[C@@H](O)C(=O)N1CCOC[C@H]1C(=O)NCc1cc(Cl)ccc1CN [Example 4, (3S)—N-[2-(aminomethyl)-5-chlorobenzyl]-4-[(2R)-2-hydroxy-3,3-dimethylbutanoyl]morpholine-3-carboxamide trifluoroacetate salt]",32
6,"CC(C)(C)[C@@H](O)C(=O)N1CCCC[C@H]1C(=O)NCc1cc(Cl)ccc1CN [Example 1, (2S)—N-[2-(aminomethyl)-5-chlorobenzyl]-1-[(2R)-2-hydroxy-3,3-dimethylbutanoyl]piperidine-2-carboxamide trifluoroacetate salt]",7.3
7,"CC(C)(C)[C@@H](O)C(=O)N1CC[S+]([O-])C[C@H]1C(=O)NCc1cc(Cl)ccc1CN (stereo partly drawn) [Example 6, (3R)—N-[2-(aminomethyl)-5-chlorobenzyl]-4-[(2R)-2-hydroxy-3,3-dimethylbutanoyl]thiomorpholine-3-carboxamide 1-oxide trifluoroacetate (salt)]",78
